# Assay results published in patent US20080288176A1 (priority 2005, published 2008).
# Key:
# male Wistar rats [1] = assay: Urine alanine aminopeptidase to creatinine ratio (proximal tubular kidney damage); type: in vivo, rat; conditions: for AAP/Cr (urine alanine aminopeptidase to creatinine), Mean: oral gavage, urine collected for 6 hours
# From the text: Myocardial infarction and ischemic events in high risk patients led one of the most popular COX-2 inhibitors to its demise (Bresalier et al., 2005). Non-selective NSAIDS may also cause similar problems due to their ability to inhibit COX-2. […] Adenosine diphosphate (ADP) generation is an indicator of myocardial infarction which has no connection with the arachidonic acid cascade (Borna et al., 2005). […] Long term NSAID use has been linked to kidney damage and hypertension (Zafirovska et al., 1993). […] This was associated with an increase in the urine the ratio of alanine-amino-peptidase (AAP) and creatinine.
# (§1) Table 1 is a summary of the protocol for a study which was conducted in male Wistar rats weighing 275-300 grams. The animals were allowed to acclimatize for at least five days prior to the commencement of the study. The study protocol was approved by the local animal ethics committee.
# (§2) All test animals, housed in metabolic cages, had urine collected over wet ice for 6 hours after dosing. Aliquots of the urine from each animal were collected to determine creatinine concentration. The remainder of the urine was centrifuged at 1000 g for 10 minutes. The supernatant was collected and mixed with analytical grade ethylene glycol at a rate of 0.4 mL ethylene glycol per 1 mL urine supernatant. The ethylene glycol/urine mixture was stored at −80° C. until analysis.
# male Wistar rats [2] = assay: Urine N-acetylglucosaminidase to creatinine ratio (distal tubule toxicity); type: in vivo, rat; conditions: oral gavage, urine collected for 6 hours
# Description: as §1, §2
# [3] = Hydrolysis in human intestinal microsomes; type: in vitro ADME; conditions: for intestinal microsomal activity: model input
# From the text: (§3) The physiologically based pharmacokinetic/pharmacodynamic model of the present invention contains a series of compartments that describe the time course of a nonsteroidal anti-inflammatory prodrug, its active metabolites and nitric oxide release in intestine, liver, kidneys, blood/plasma and heart after prodrug administration. The time course of the prodrug, its active metabolites and nitric oxide release can be simulated using a series of in vitro and in silico inputs. The stability of each component in the gastrointestinal lumen is estimated using data collected from artificial gastric and intestinal juice. Intestinal metabolism is estimated using intestinal microsomes and absorption rate is estimated using permeability data collected from a cell monolayer such as Caco-2. Hepatic elimination is estimated using liver microsomes and stability in plasma is calculated using degradation of each component in the media. Plasma protein binding can either be measured using a standardized in vitro method or it can be estimated using an in silico method. The distribution of each component in various parts of the body is estimated using an in silico method. The rate of nitric oxide release is estimated using an in vitro endothelial cell model. The time course of prodrug, its active metabolites and nitric oxide can be simulated in human and animal using this physiologically based pharmacokinetic/pharmacodynamic model provided that the corresponding in vitro and in silico data are used as inputs.
# The selection of in vitro tests is designed to provide parameters for the above mentioned model. The use of an inappropriate test would result in wrong predictions. For example, Knaus et al. (2005) used guinea pig serum and porcine esterases to hydrolyze their O^2-substituted diazeniumdiolate derivatives of ASPIRIN, as disclosed in U.S. Ser. No. 60/681,842. These tests provided very little information in terms of in vivo human NO-NSAID metabolism rate and the extent to which metabolic conversion to NO donor and NSAID occurred. […] The half-life values were less than one minute. Based on these observations, it has become apparent that prior to entering the systemic circulation, it is likely that the NO-NSAID would have been hydrolyzed in the enterocytes and little or no NO-NSAID would have been detected in the blood stream. Furthermore, the release of NO will commence immediately once the NO donor is detached from the NSAID.
# (§4) Representative in vitro tests or in silico estimates include: (a) pKa estimation or measurement; (b) Log P measurement or in silico estimation; (c) Solubility in various physiological fluids; (d) Permeability. Caco-2 and/or NOVOKIN's proprietary animal and human cell lines can be used to obtain this parameter; (e) Metabolic rate in the intestine and liver. Human or animal intestinal microsomes, S9 fraction, and cytosol can be used for this purpose. Human or animal hepatocytes, liver microsomes, S9 fraction, and cytosol can also be used; (f) Hydrolysis in human or animal plasma; (g) Serum or plasma protein binding. It can be measured in vitro or estimated in silico; (h) The rate of NO release; (i) Existing pharmacokinetic and pharmacodynamic data of NSAID or a biocompatible agent; (j) Existing NO release rate of known diazeniumdiolate if applicable; (k) Stability in gastric and intestinal environment; and (l) In silico volume of distribution estimation.
# Whenever in vitro estimate is attainable, the in vitro results will be used, for example, plasma protein binding. Methods reported by Bowalgaha & Miners (2001), Martignoni et al. (2006), Tong et al. (2001) and Thulesen et al. (1999) were used for in vitro and in vivo scale-up for clearance in the intestine, absorption rate constant and hepatic clearance. The simulation begins with no material in all compartments except for the initial bolus in one compartment (typically the stomach compartment). The simulation then estimates the changing distribution of the material with time.
# [4] = Hydrolysis in human liver microsomes; type: in vitro ADME; conditions: for liver microsomal activity: model input
# From the text: as §3, with “The” for “The physiologically based pharmacokinetic/pharmacodynamic model of the present invention contains a series of compartments that describe the time course of a nonsteroidal anti-inflammatory prodrug, its active metabolites and nitric oxide release in intestine, liver, kidneys, blood/plasma and heart after prodrug administration. The”
# The selection of in vitro tests is designed to provide parameters for the above mentioned model. The use of an inappropriate test would result in wrong predictions.
# as §4
# The simulation begins with no material in all compartments except for the initial bolus in one compartment (typically the stomach compartment). The simulation then estimates the changing distribution of the material with time.
# [5] = Stability in intestinal lumen (decay rate); type: in vitro ADME
# From the text: as §3, §4
smiles,measurement,setting,value
COc1ccc2cc([C@H](C)C(=O)OCCCCO[N+](=O)[O-])ccc2c1 [AZD 3582],Urine AAP/creatinine ratio change (in words),male Wistar rats [1],did cause an increase
same,"AAP/Cr (urine alanine aminopeptidase to creatinine), Mean",male Wistar rats [1],403.400
same,"Urine NAG/Cr values, Mean",male Wistar rats [2],27.439
same,intestinal microsomal activity,[3],554 mL/min/organ
same,liver microsomal activity,[4],118566 mL/min/organ
same,intestinal lumen decay rate constant,[5]; Human,0 min⁻¹
same,intestinal lumen decay rate constant,[5]; Rat,0 min⁻¹
"COc1ccc2cc(C(C)C(=O)OCON=[N+]([O-])N3CCCC3)ccc2c1 (stereo not drawn) [PYRO-NO-NAP, pyrrolidino-diazeniumdiolate-naproxen]","AAP/Cr (urine alanine aminopeptidase to creatinine), Mean",male Wistar rats [1],195.569
same,"Urine NAG/Cr values, Mean",male Wistar rats [2],21.515
same,intestinal molar percent conversion to Naproxen,[3],87%
same,intestinal microsomal activity,[3],188 mL/min/organ
same,liver molar percent conversion to Naproxen,[4],72%
same,liver microsomal activity,[4],567000 mL/min/organ
same,intestinal lumen decay rate constant,[5]; Human,0.025 min⁻¹
same,intestinal lumen decay rate constant,[5]; Rat,0.025 min⁻¹
